In PubChem BioAssay AID1963831 (Molecular Pharmacology Branch, DTP, NCI, 2024):

Test system: 889142-216-R-J1-PDC complex spheroid viability
Experiment: Anticancer human tumor 889142-216-R-J1-PDC patient-derived bladder carcinoma cell line growth inhibition [POLQ]
Conditions: for IC50: curve of first compound; for viability, T/C: stronger effect = lower value; active = viability on the fitted dose curve at most 10% of control; inactive = the rest
Protocol: Multicellular complex tumor spheroid response to Polymerase (POL) inhibitors (novobiocin, ART-558, RP6685) in combination with a variety of drugs and investigational agents in selected tumor cell lines
The POL inhibitors (novobiocin, ART-558, and RP6685) were evaluated both individually and in combination with standard of care and investigational anticancer small molecules within a complex spheroid model of solid tumors. . Complex spheroids include a stromal component modeled by human endothelial cells (HUVEC) and fibroblasts modeled by human mesenchymal stem cells (MSCs). The concentration ranges selected for each drug and investigational agent were based upon clinically achievable concentrations if the clinical Cmax of the agent was known.
Compounds. The drugs and investigational agents: novobiocin (NSC847541), ART-558 (NSC835418), RP-6685 (NSC848927), peposertib (NSC802822), ceralasertib (NSC780249), elimusertib (NSC800525), camonsertib (NSC841442), AZD-1390 (NSC803789), olaparib (NSC753686), talazoparib (NSC767125), rucaparib (NSC756644), sotorasib (NSC818433), MRTX-1133 (NSC836407), SN-38 (NSC673596), topotecan (NSC609699), epotoside (NSC141540), doxorubicin (NSC123127), gemcitabine (NSC613327), 5-fluorouracil (NSC19893), paclitaxel (NSC125973), vemurafenib (NSC761431), MSA-2 (NSC828583), SN-011 (NSC837082), adavosertib (NSC754352), prexasertib (NSC758257), carboplatin (NSC241240) and oxaliplatin (NSC266046), were obtained from the National Cancer Institute (NCI) Developmental Therapeutics Program Chemical Repository (21). The FDA-approved anticancer drug set is available from the Developmental Therapeutics Program at https://dtp.cancer.gov/organization/dscb/obtaining/. […] The stock solutions were prepared in dimethyl sulfoxide (DMSO, Sigma-Aldrich, St. Louis, MO, cat. D2650), except for the platinum compounds which were prepared in saline (Quality Biological, Gaithersburg, MD, cat. 114-055-101), at 800-fold the tested concentration and stored at -70 degrees C prior to their use. All drugs and investigational agents were tested over a range starting from a high concentration at or near the clinical Cmax and decreasing in half-log increments. If the clinical Cmax for an agent had not been determined, the highest concentration tested was 10 microM, except for SN-38, which was tested at a high concentration of 1 microM.
Cell Culture. All cells were maintained in an incubator at 37 degrees C and 5% CO2 with 95% humidity. The PDC lines were cultured according to standard operating procedures established by the NCI PDMR (https://pdmr.cancer.gov). Table 3 of the manuscript, lists the cell lines along with the number of the three cell types plated to form the mct-spheroids and media for tumor cell growth. After thawing, all PDC lines, except 997537-175-T-J1-PDC and 415267-285-R-J2-PDC, were cultured in Matrigel-coated flasks prepared with a working solution of 1X Ham's F-12 nutrient mix, without supplementation (Thermo Fisher Scientific, cat. 11765054), 100 U/mL penicillin-streptomycin (Thermo Fisher Scientific, cat. 15140122), and 2.5% Matrigel (Corning Inc., Corning, NY, cat. 354248) for the first three passages. The two PDC lines 997537-175-T-J1-PDC and 415267-285-R-J2-PDC were cultured on uncoated flasks. The 857933-349-R-J2-PDC line was cultured in 6C/Colon 1B media containing advanced DMEM/F-12 (Thermo Fisher Scientific, cat. 12634028), 10 mM HEPES (Thermo Fisher Scientific, cat. 15630080), 1X GlutaMAX supplement (Thermo Fisher Scientific, cat. 35050061), 0.1 mg/mL primocin (InvivoGen, San Diego, CA, cat. ant-pm-2), 10% defined fetal bovine serum, heat inactivated (HyClone Laboratories Inc., Logan, UT, cat. SH30070.03HI), 50% L-WRN conditioned media (ATCC, cat. CRL-3276), 1.25 mM N-Acetyl-L-cysteine (Sigma-Aldrich, cat. A9165), 10 mM nicotinamide (Sigma-Aldrich, cat. N0636), 1X B-27 supplement (Thermo Fisher Scientific, cat. 17504044), 1X N-2 supplement (Thermo Fisher Scientific, cat. […]

[1] = second compound 0.0316 µM, first compound 0.0316 µM
[2] = second compound 0.0316 µM, first compound 0.1 µM
[3] = second compound 0.0316 µM, first compound 0.316 µM
[4] = second compound 0.0316 µM, first compound 1 µM
[5] = second compound 0.0316 µM, first compound 3.16 µM
[6] = second compound 0.0316 µM, first compound 10 µM
[7] = second compound 0.1 µM, first compound 0.0316 µM
[8] = second compound 0.1 µM, first compound 0.1 µM
[9] = second compound 0.1 µM, first compound 0.316 µM
[10] = second compound 0.1 µM, first compound 1 µM
[11] = second compound 0.1 µM, first compound 3.16 µM
[12] = second compound 0.1 µM, first compound 10 µM
[13] = second compound 0.316 µM, first compound 0.0316 µM
[14] = second compound 0.316 µM, first compound 0.1 µM
[15] = second compound 0.316 µM, first compound 0.316 µM
[16] = second compound 0.316 µM, first compound 1 µM
[17] = second compound 0.316 µM, first compound 3.16 µM
[18] = second compound 0.316 µM, first compound 10 µM
[19] = second compound 1 µM, first compound 0.0316 µM
[20] = second compound 1 µM, first compound 0.1 µM
[21] = second compound 1 µM, first compound 0.316 µM
[22] = second compound 1 µM, first compound 1 µM
[23] = second compound 1 µM, first compound 3.16 µM
[24] = second compound 1 µM, first compound 10 µM
[25] = second compound 3.16 µM, first compound 0.0316 µM
[26] = second compound 3.16 µM, first compound 0.1 µM
[27] = second compound 3.16 µM, first compound 0.316 µM
[28] = second compound 3.16 µM, first compound 1 µM
[29] = second compound 3.16 µM, first compound 3.16 µM
[30] = second compound 3.16 µM, first compound 10 µM
[31] = second compound 10 µM, first compound 0.0316 µM
[32] = second compound 10 µM, first compound 0.1 µM
[33] = second compound 10 µM, first compound 0.316 µM
[34] = second compound 10 µM, first compound 1 µM
[35] = second compound 10 µM, first compound 3.16 µM
[36] = second compound 10 µM, first compound 10 µM
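Also: spheroids exposed to compounds for seven days.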

CC(C)n1c(=O)n(C)c2cnc3cc(F)c(-c4ccc(OCCCN5CCCCC5)nc4)cc3c21 + Cc1cccc(N(C)C(=O)C2C(O)CCN2c2nc(C)cc(C(F)(F)F)c2C#N)c1
inactive: viability, T/C [1] 83.1% | viability, T/C [2] 75.4% | viability, T/C [3] 89.5% | viability, T/C [4] 84.4% | viability, T/C [5] 58.1% | viability, T/C [6] 14.7% | viability, T/C [7] 87.9% | viability, T/C [8] 78.6% | viability, T/C [9] 77% | viability, T/C [10] 66.8% | viability, T/C [11] 59.3% | viability, T/C [12] 15.5% | viability, T/C [13] 88.9% | viability, T/C [14] 82.6% | viability, T/C [15] 70.3% | viability, T/C [16] 81.6% | viability, T/C [17] 55.6% | viability, T/C [18] 12.8% | viability, T/C [19] 75.5% | viability, T/C [20] 97.5% | viability, T/C [21] 101% | viability, T/C [22] 75.9% | viability, T/C [23] 57% | viability, T/C [24] 15.5% | viability, T/C [25] 80.6% | viability, T/C [26] 87.9% | viability, T/C [27] 77.5% | viability, T/C [28] 98.9% | viability, T/C [29] 65.5% | viability, T/C [30] 12.7% | viability, T/C [31] 70% | viability, T/C [32] 66.3% | viability, T/C [33] 68.5% | viability, T/C [34] 52.7% | viability, T/C [35] 49.5% | viability, T/C [36] 12%
2.19 µM: IC50 (second compound 10 µM)
4.43 µM: IC50 (second compound 3.16 µM)
3.63 µM: IC50 (second compound 0.1 µM)
3.73 µM: IC50 (second compound 1 µM)
3.68 µM: IC50 (second compound 0.316 µM)
3.93 µM: IC50 (second compound 0.0316 µM)

O=c1[nH]cc(F)c(=O)[nH]1 + Nc1ccc(C#CCN(C(=O)Cc2ncc(C(F)(F)F)cc2C(F)(F)F)c2ccc(F)cc2)nn1
inactive: viability, T/C [1] 91.6% | viability, T/C [2] 86.2% | viability, T/C [3] 90% | viability, T/C [4] 80% | viability, T/C [5] 81.1% | viability, T/C [6] 60.7% | viability, T/C [7] 91.1% | viability, T/C [8] 78.8% | viability, T/C [9] 58.8% | viability, T/C [10] 75.1% | viability, T/C [11] 67.1% | viability, T/C [12] 69.1% | viability, T/C [13] 108% | viability, T/C [14] 73.9% | viability, T/C [15] 68% | viability, T/C [16] 82.7% | viability, T/C [17] 68.3% | viability, T/C [18] 61.7% | viability, T/C [19] 83.4% | viability, T/C [20] 101% | viability, T/C [21] 79.8% | viability, T/C [22] 66.6% | viability, T/C [23] 61.9% | viability, T/C [24] 60.1% | viability, T/C [25] 82.7% | viability, T/C [26] 89.2% | viability, T/C [27] 83.3% | viability, T/C [28] 67.4% | viability, T/C [29] 72.4% | viability, T/C [30] 73.8% | viability, T/C [31] 109% | viability, T/C [32] 103% | viability, T/C [33] 83.2% | viability, T/C [34] 78.4% | viability, T/C [35] 68.6% | viability, T/C [36] 67.2%
> 10 µM: IC50 (second compound 0.0316 µM) | IC50 (second compound 0.1 µM) | IC50 (second compound 0.316 µM) | IC50 (second compound 1 µM) | IC50 (second compound 3.16 µM) | IC50 (second compound 10 µM)

C#Cc1c(F)ccc2cc(O)cc(-c3ncc4c(N5CC6CCC(C5)N6)nc(OCC56CCCN5CC(F)C6)nc4c3F)c12 (stereo unspecified) + COC1C(OC(N)=O)C(O)C(Oc2ccc3c(O)c(NC(=O)c4ccc(O)c(CC=C(C)C)c4)c(=O)oc3c2C)OC1(C)C
5.82 µM: IC50 (second compound 0.316 µM)
5.53 µM: IC50 (second compound 3.16 µM)
9.08 µM: IC50 (second compound 0.1 µM)
inactive: viability, T/C [1] 99.2% | viability, T/C [2] 111% | viability, T/C [3] 66.3% | viability, T/C [4] 88.7% | viability, T/C [5] 63.7% | viability, T/C [6] 34.5% | viability, T/C [7] 108% | viability, T/C [8] 109% | viability, T/C [9] 77.4% | viability, T/C [10] 89.5% | viability, T/C [11] 81.5% | viability, T/C [12] 44.3% | viability, T/C [13] 119% | viability, T/C [14] 113% | viability, T/C [15] 82.5% | viability, T/C [16] 97.3% | viability, T/C [17] 76.1% | viability, T/C [18] 29.4% | viability, T/C [19] 89.1% | viability, T/C [20] 91.8% | viability, T/C [21] 95.4% | viability, T/C [22] 82% | viability, T/C [23] 62.8% | viability, T/C [24] 27.8% | viability, T/C [25] 96.9% | viability, T/C [26] 84.9% | viability, T/C [27] 95% | viability, T/C [28] 79.2% | viability, T/C [29] 78.2% | viability, T/C [30] 23.2% | viability, T/C [31] 103% | viability, T/C [32] 87.2% | viability, T/C [33] 76.1% | viability, T/C [34] 76.8% | viability, T/C [35] 71.5% | viability, T/C [36] 27.1%
4.96 µM: IC50 (second compound 10 µM)
4.77 µM: IC50 (second compound 1 µM)
5.38 µM: IC50 (second compound 0.0316 µM)
